Test results as given in patent US20080194652A1 (priority 2004, published 2008).

Key:
rodent malaria = conditions: in vivo; cited from earlier work
resistant P. falciparum = conditions: literature; cited from earlier work
[1] = tested on: CQ-resistant P. falciparum infection; conditions: cited from earlier work
P. falciparum strain W2 = test: 72 hour microplate growth assay, SybrGreen I-based fluorescence readout, drug-resistance reversal; assay type: cell-based, Plasmodium falciparum; conditions: for decrease of CQ EC50 (chloroquine resistance reversal): with chloroquine, equimolar comparison of (+) and (+/−) CP; for resistance reversal activity inferred from comparison of (+/−) with (+): indirect assessment, chloroquine, chloroquine and quinine
Method: (§1) Results were determined by SybrGreen I-based fluorescence assay.
(§2) This indirect assessment was required because only the antihistaminically-active (+) and (+/−) forms are available.

P. falciparum strain 7G8 = test: as above; assay type: cell-based, Plasmodium falciparum; conditions: for decrease of CQ EC50 (chloroquine resistance reversal): with chloroquine, equimolar comparison of (+) and (+/−) CP; for resistance reversal activity inferred from comparison of (+/−) with (+): indirect assessment, chloroquine, chloroquine and quinine
Method: as §1, §2

[2] = tested on: cardiac electrophysiology; conditions: cited from earlier work
Plasmodium falciparum = test: in vitro drug-resistance reversal, strain not stated; assay type: cell-based
[3] = in vivo; cited from earlier work
[4] = listed as (+/−)chlorpheniramine
[5] = with quinine, equimolar comparison

## CN(C)CCC(c1ccc(Cl)cc1)c1ccccn1 (racemic) [(+/−) CP, chlorpheniramine]
Rodent malaria
  effectiveness in rodent malaria models: demonstrated effectiveness
Resistant P. falciparum
  chloroquine resistance reversal in vitro: demonstrated effectiveness
[1]; in vivo
  drowsiness in clinical trials: drowsiness was consistently found
P. falciparum strain W2
  decrease of CQ EC50 (chloroquine resistance reversal): at least equivalent to (+) CP
P. falciparum strain W2; [4]
  decrease of CQ EC50 (chloroquine resistance reversal): equivalent or slightly superior to the (+) isomer
P. falciparum strain W2; [5]
  quinine resistance reversal: equivalent or slightly superior to the (+) isomer
P. falciparum strain 7G8
  decrease of CQ EC50 (chloroquine resistance reversal): at least equivalent to (+) CP
P. falciparum strain 7G8; [4]
  decrease of CQ EC50 (chloroquine resistance reversal): equivalent or slightly superior to the (+) isomer
P. falciparum strain 7G8; [5]
  quinine resistance reversal: equivalent or slightly superior to the (+) isomer

## CN(C)CC[C@@H](c1ccc(Cl)cc1)c1ccccn1 [(+) CP, (+) chlorpheniramine]
P. falciparum strain W2
  decrease of CQ EC50 (chloroquine resistance reversal): active
P. falciparum strain 7G8
  decrease of CQ EC50 (chloroquine resistance reversal): active

## CN(C)CCC(c1ccc(Cl)cc1)c1ccccn1 (single isomer, unassigned; (-)) [(−) CP, (−) chlorpheniramine]
[2]
  change of cardiac electrophysiology: only at in vitro concentrations far above those needed to restore chloroquine sensitivity
Plasmodium falciparum; inferred for the (−) isomer
  chloroquine resistance reversal: reverses
  quinine resistance reversal: reverses
P. falciparum strain W2
  resistance reversal activity inferred from comparison of (+/−) with (+): active
P. falciparum strain W2; listed as (−)chlorpheniramine
  resistance reversal activity inferred from comparison of (+/−) with (+): must be active
P. falciparum strain 7G8
  resistance reversal activity inferred from comparison of (+/−) with (+): active
P. falciparum strain 7G8; listed as (−)chlorpheniramine
  resistance reversal activity inferred from comparison of (+/−) with (+): must be active

## CNCCCN1c2ccccc2CCc2ccccc21 [desipramine]
Resistant P. falciparum
  chloroquine resistance reversal in vitro: reversed chloroquine resistance
[3]
  chloroquine resistance reversal in primate animal trial: reversed chloroquine resistance
[1]; co-administered with chloroquine, clinical trials
  clinical outcome / cure rates: ineffective

## CN(C)CCC(c1ccc(F)cc1)c1ccccn1 (stereo not shown) [flupheniramine]
Plasmodium falciparum; with chloroquine, in vitro
  chloroquine resistance reversal: chloroquine resistance reversal agents

## CN(C)CCC(c1ccc(Br)cc1)c1ccccn1 (stereo not shown) [brompheniramine]
Plasmodium falciparum; with chloroquine, in vitro
  chloroquine resistance reversal: chloroquine resistance reversal agents

## CN(C)CCC(c1ccccc1)c1ccccn1 (stereo not shown) [pheniramine]
Plasmodium falciparum; with chloroquine, in vitro
  chloroquine resistance reversal: chloroquine resistance reversal agents

## COc1ccc(CCN(C)CCCC(C#N)(c2ccc(OC)c(OC)c2)C(C)C)cc1OC (stereo not shown) [verapamil]
Resistant P. falciparum
  chloroquine resistance reversal in vitro: partially restored chloroquine sensitivity
